In brackets after ≈: the same amount, converted by molar mass. Entries after “also recorded” stand apart in the source; their conditions may differ. Where two headings read alike, the source gives them in different places.
Tests used:
SKI-DLBCL = assay: XTT cell growth inhibition, SKI-DLBCL; assay type: cell-based; conditions: Homo sapiens; Lymphoma; XTT tetrazonium assay
Ovcar-4 = assay: XTT cell growth inhibition, Ovcar-4; assay type: cell-based; conditions: Homo sapiens
H929 = assay: XTT cell growth inhibition, H929; assay type: cell-based; conditions: Homo sapiens
RL = assay: XTT cell growth inhibition, RL; assay type: cell-based; conditions: Homo sapiens, read-out: IC50 (nM), RL
RPMI8226 myeloma cells = assay: Pulse exposure, washout and cell count; assay type: cell-based, human; conditions: for Cell death after pulse exposure: 24 hrs exposure
MDA MB435 = assay: XTT cell growth inhibition, MDA MB435; assay type: cell-based; conditions: Homo sapiens
Solubility in water = conditions: water
OPM-2 myeloma cells = assay: Cell cycle analysis (propidium iodide DNA staining), OPM-2; assay type: cell-based, human
From the text: FIG. 95 is cell cycle analysis as determined by Propidium iodide DNA staining. […] The two drugs induced the same patter of cell cycle arrest.

[1] = tested on: human xenografts in nude mice, such as MX-1; design: Relative therapuetic index at MTD: key to the marks not given beside the values
MRC-5 = assay: XTT cell growth inhibition, MRC-5; assay type: cell-based, human
caspase 3 = assay: Caspase 3 activation by Western blot; assay type: cell-based, human; conditions: myeloma cells
From the text: It is not clear whether caspase is involved in this process. Firstly, we investigated the activation of caspase 3, an effector caspase in the caspase pathway, in myeloma cells, by Western blot. […] Immunohistochemical staining of CAG myeloma cells using antibody specific to cleaved caspase-3 was used to show cytoplasmic and perinuclear localization features in apoptotic cells. […] Secondly, we attempted to assay the activity of caspase 8 and 9, initiator caspase in the caspase pathway, by fluorometric method. […] Note that increased caspase 9 activity was more prominent than caspase 8. The signals triggering the activation of caspase 8 or 9 are actively under investigation.

HT-29 = assay: XTT cell growth inhibition, HT-29; assay type: cell-based; conditions: Homo sapiens
IGROV = assay: XTT cell growth inhibition, IGROV; assay type: cell-based; conditions: Homo sapiens, read-out: IC50 (nM), IGROV
[2] = tested on: Human marrow stromal cell lines, HS-27A and HS-5; assay: XTT cell proliferation, normal stromal cells; conditions: read-out: IC50, stromal lines HS-27A and HS-5
From the text: Human marrow stromal cell lines, HS-27A and HS-5 immortalized by E6/E7 genes, have normal marrow stromal function, which support stem cell self-renewal, and proliferation.

Human CD34+ stem cells = assay: Apoptosis and 2 weeks progenitor assays on CD34+ stem cells; assay type: cell-based; conditions: 24 hours incubation, umbilical cord blood CD34+
Protocol: Then drugs were washed out and annexin V staining was performed. Solid area represents vehicle control and open area represents drug treated group. There is no obvious increased apoptosis of non-cycling human CD34+ cells with short period of exposure to epothilones.
Drug cytotoxicity to hematopoietic stem cells is always a major concern. Human CD34+ stem cells were isolated from umbilical cord blood and incubated with either dEpoB or Fludelone alone for 24 hours. After washing out the drugs, apoptosis assays and 2 weeks progenitor assays were performed to evaluate the influence of epothilone to stem cells.

MOLP-5 = assay: XTT cell growth inhibition, MOLP-5; assay type: cell-based; conditions: Homo sapiens, read-out: IC50 (nM), MOLP-5
CCRF-CEM/Taxol = assay type: cell-based, human; conditions: Homo sapiens, CCRF-CEM
HS-27A = assay: XTT cell growth inhibition, HS-27A; assay type: cell-based; conditions: Homo sapiens, read-out: IC50 (nM), HS-27A
RPMI8226 = assay: XTT cell growth inhibition, RPMI8226; assay type: cell-based; conditions: Homo sapiens
CAG myeloma cell lines = assay: Annexin V staining, CAG; assay type: cell-based, human; conditions: 24 hours treatment
From the text: In early apoptotic cells, the membrane phospholipids phosphatidylserine (PS) is translocated from the inner to the outer leaflet of the plasma membrane, thereby exposing PS to the external cellular environment. Annexin V is a 35-36 kD Ca^2+ dependent phospholipids-binding protein that has a high affinity for PS, and binds to cells with exposed PS. In conjunction with a vital dye such as 7-amino-actinomycin (7-AAD) staining dead cells, this assay allows to identify early apoptotic cells. […] Note that X-axis is Annexin staining and Y-axis is 7-AAD staining.

Ovarian cancer lines = assay: XTT cell growth inhibition, ovarian cancer lines (mean); assay type: cell-based; conditions: Homo sapiens, read-out: Mean IC50, ovarian lines
HCT-116 = assay: XTT cell growth inhibition, HCT-116; assay type: cell-based; conditions: Homo sapiens
CAG myeloma cells = assay: Disseminated CAG xenograft myeloma mice; conditions: 20 mg/kg; for Survival versus controls: intraperitoneal
Protocol: 10×10^6 CAG myeloma cells engineered with Luc-eGFP-TK fusion gene were injected intravenously into the mouse-tail vein, and the treatment was started when decent myeloma cells implantation was detected by bioluminescence imaging on day 7.

HS-5 = assay: XTT cell growth inhibition, HS-5; assay type: cell-based; conditions: Homo sapiens
[3] = read-out: IC50 (μM), CCRF-CEM, XTT assay following 72 h inhibition, Table 1-2
[4] = read-out: IC50, CCRF-CEM(C), XTT assay following 72 h inhibition, Table 1-3

## C/C1=C/CC(/C(C)=C/c2csc(C)n2)OC(=O)C[C@H](O)C(C)(C)C(=O)[C@H](C)[C@@H](O)[C@@H](C)CCC1 (stereo partly shown) [Compound 1, 12,13-desoxyepothilone B, reference compound]
SKI-DLBCL
  IC50: 72 ± 9.8 nM
Ovcar-4; OVCAR-4, read-out: IC50 (nM), Ovcar-4
  IC50: 16 ± 2.5 nM
H929; NCI-H929, read-out: IC50 (nM), H929
  IC50: 42.8 ± 4.5 nM
RL
  IC50: 90 ± 11 nM
RPMI8226 myeloma cells; 4-8 hrs exposure, washout, incubation up to 48 hrs
  Decrease of the number of cells from input: slowed cell expansion
RPMI8226 myeloma cells
  Cell death after pulse exposure: all cells being dead by 48 hrs
RPMI8226 myeloma cells; one hour exposure, washout, 48 hrs
  Decrease of tumor cell numbers: reduced but did not prevent tumor cell expansion
MDA MB435; MDA-MB-435, read-out: IC50 (nM), MDA MB435
  IC50: 7.8 ± 4.2 nM
CCRF-CEM; human
  IC50: 0.0056 ± 0.0028 µM
CCRF-CEM; [3]
  IC50: 0.0036 µM
CCRF-CEM; [4]
  IC50: 0.0036 µM
CCRF-CEM; read-out: IC50, CCRF-CEM, XTT assay following 72 h inhibition, Table 1-4
  IC50: 0.0036 µM
Solubility in water
  solubility: 9.4 µg/mL (≈ 19.1 µM)
OPM-2 myeloma cells
  Cell cycle arrest: arrested in G2M phase starting from 6 hours and absolutely blocked at 24 hours
[1]; mouse, in vivo
  Dose accomplishing complete suppression of tumor in a variety of xenografts: 30 mg/kg
  Maximal b.w. % drop without death: 32%
MRC-5; Homo sapiens, MRC5, read-out: IC50 (nM), MRC-5
  IC50: 8.2 ± 4.3 nM
Caspase 3
  Cleaved caspase 3 (Western blot): increased 17 kd cleaved caspase 3
HT-29; HT-29, read-out: IC50 (nM), HT-29
  IC50: 7.2 ± 2.2 nM
IGROV
  IC50: 15 ± 3.8 nM
[2]
  IC50: 90 to 100 nM
Human CD34+ stem cells
  Toxicity on non-cycling stem cells: no significant toxicity
MOLP-5
  IC50: 68.6 ± 5.5 nM
CCRF-CEM/Taxol; 72 h, read-out: IC50 (μM), CCRF-CEM/Taxol
  IC50: 0.0057 µM
CCRF-CEM/Taxol; 72 h, read-out: IC50, C/Taxol (μM)
  IC50: 0.0046 µM
CCRF-CEM/Taxol; 72 h, read-out: IC50, CCRF-CEM/Taxol
  IC50: 0.0046 µM
HS-27A
  IC50: 100 ± 10 nM
RPMI8226; RPMI-8226, read-out: IC50 (nM), RPMI8226
  IC50: 36.7 ± 2 nM
CAG myeloma cell lines
  Apoptosis (Annexin V / 7-AAD): majority of cells either enter apoptosis or are dead
Ovarian cancer lines
  IC50: 16.5 nM
HCT-116; HCT-116, read-out: IC50 (nM), HCT-116
  IC50: 7.5 ± 3.1 nM
CAG myeloma cells
  Survival after transplanting CAG cells (Kaplan-Meier): ≤ 50 days
  Survival versus controls: no difference in survival
HS-5; HS5, read-out: IC50 (nM), HS-5
  IC50: 100 ± 8 nM

## C/C(=C\c1csc(C)n1)[C@@H]1C/C=C(/C(F)(F)F)C/C=C/[C@H](C)[C@H](O)[C@@H](C)C(=O)C(C)(C)[C@@H](O)CC(=O)O1 [Compound 29, 26-trifluoro-trans-9,10-dehydro-12,13-desoxyepothilone B]
SKI-DLBCL
  IC50: 60 ± 4.2 nM
Ovcar-4; OVCAR-4, Ovarian Ca, XTT tetrazonium assay, read-out: IC50 (nM), Ovcar-4
  IC50: 1.8 ± 0.7 nM
H929; NCI-H929, Myeloma, XTT tetrazonium assay, read-out: IC50 (nM), H929
  IC50: 9.2 ± 1.9 nM
RL; Lymphoma, XTT tetrazonium assay
  IC50: 80 ± 11 nM
RPMI8226 myeloma cells
  Decrease of the number of cells from input: ~50%
  Decrease of tumor cell numbers: 50%
  Cell death after pulse exposure: all cells being dead by 48 hrs
MDA MB435; MDA-MB-435, Breast Ca, XTT tetrazonium assay, read-out: IC50 (nM), MDA MB435
  IC50: 5.8 ± 2.8 nM
CCRF-CEM
  Attenuation of cytotoxicity by the three fluorine atoms at C26, factor: ≤ 4
CCRF-CEM; human
  IC50: 0.0032 ± 0.0003 µM
CCRF-CEM; in the cell
  Cytotoxicity relative to the benchmark compound dEpoB: ~1.8 fold
CCRF-CEM; [3]
  IC50: 0.0035 µM
CCRF-CEM; [4]
  IC50: 0.0035 µM
Solubility in water
  solubility: 20 µg/mL (≈ 36.8 µM)
OPM-2 myeloma cells
  Cell cycle arrest: arrested in G2M phase starting from 6 hours and absolutely blocked at 24 hours
[1]; mouse, in vivo
  Maximal b.w. % drop without death: 33%
  Relative therapuetic index at MTD: +++++
[1]; mouse, in vivo, iv
  Curative therapeutic dose range: 10 to 30 mg/kg
  Optimal dose for i.v. infusion: 20 to 30 mg/kg
  Therapeutic dose regimen for Q2D 6 hr-iv infusion: 10 to 30 mg/kg
[1]; oral
  Optimal dose for the oral administration: 20 mg/kg, QD or 30 mg/kg Q2D
MRC-5; MRC5, Embryonic lung fibroblasts (human), XTT tetrazonium assay, read-out: IC50 (nM), MRC-5
  IC50: 7.4 ± 2.7 nM
Caspase 3
  Cleaved caspase 3 (Western blot): increased 17 kd cleaved caspase 3
HT-29; HT-29, Colon Ca, XTT tetrazonium assay, read-out: IC50 (nM), HT-29
  IC50: 4 ± 1.7 nM
IGROV; Ovarian Ca, XTT tetrazonium assay
  IC50: 2 ± 1.2 nM
[2]
  IC50: 90 to 100 nM
Human CD34+ stem cells
  Toxicity on non-cycling stem cells: no significant toxicity
MOLP-5; Myeloma, XTT tetrazonium assay
  IC50: 14.4 ± 2.6 nM
CCRF-CEM/Taxol; XTT assay following 72 h inhibition, Table 1-2, read-out: IC50 (μM), CCRF-CEM/Taxol
  IC50: 0.0057 µM
CCRF-CEM/Taxol; XTT assay following 72 h inhibition, Table 1-3, read-out: IC50, C/Taxol
  IC50: 0.0057 µM
HS-27A; Marrow stroma, XTT tetrazonium assay
  IC50: 102 ± 8 nM
RPMI8226; RPMI-8226, Myeloma, XTT tetrazonium assay, read-out: IC50 (nM), RPMI8226
  IC50: 7.6 ± 1.2 nM
CAG myeloma cell lines
  Apoptosis (Annexin V / 7-AAD): majority of cells either enter apoptosis or are dead
Ovarian cancer lines
  IC50: 1.6 nM
HCT-116; HCT-116, Colon Ca, XTT tetrazonium assay, read-out: IC50 (nM), HCT-116
  IC50: 3.6 ± 1.3 nM
CAG myeloma cells
  Survival after transplanting CAG cells (Kaplan-Meier): > 80 days
  Survival versus controls: at least doubled the survival time than controls
CAG myeloma cells; listed as Fludelone
  Tumor burden by bioluminescence imaging: significant decreased tumor photon emissions; also recorded: significantly decreased tumor burden
HS-5; HS5, Marrow stroma, XTT tetrazonium assay, read-out: IC50 (nM), HS-5
  IC50: 96 ± 7 nM
